Columns and labels:
[1] = molecular target: Serine/threonine-protein kinase WNK4 (Homo sapiens) (UniProt Q96J92); conditions: Compound concentration 100.0 nM
[2] = molecular target: Mitogen-activated protein kinase kinase kinase kinase 3 (Homo sapiens) (UniProt Q8IVH8); conditions: Compound concentration 100.0 nM
[3] = molecular target: Ephrin type-A receptor 2 (Homo sapiens) (UniProt P29317); conditions: Compound concentration 100.0 nM
[4] = test system: Epidermal growth factor receptor (Homo sapiens), P00533 [G719S]; conditions: Compound concentration 100.0 nM
[5] = molecular target: Mitogen-activated protein kinase kinase kinase 6 (Homo sapiens) (UniProt O95382); conditions: Compound concentration 100.0 nM
[6] = molecular target: Mitogen-activated protein kinase kinase kinase 11 (Homo sapiens) (UniProt Q16584); conditions: Compound concentration 100.0 nM
[7] = molecular target: Ephrin type-B receptor 6 (Homo sapiens) (UniProt O15197); conditions: Compound concentration 100.0 nM
[8] = molecular target: Casein kinase I isoform gamma-1 (Homo sapiens) (UniProt Q9HCP0); conditions: Compound concentration 100.0 nM
[9] = molecular target: Cyclin-dependent kinase 2 homolog (Plasmodium falciparum (isolate 3D7)) (UniProt P61075); conditions: Compound concentration 100.0 nM
[10] = molecular target: Calcium/calmodulin-dependent protein kinase type 1 (Homo sapiens) (UniProt Q14012); conditions: Compound concentration 100.0 nM
[11] = molecular target: Serine/threonine-protein kinase MRCK beta (Homo sapiens) (UniProt Q9Y5S2); conditions: Compound concentration 100.0 nM
[12] = molecular target: Receptor tyrosine-protein kinase erbB-3 (Homo sapiens) (UniProt P21860); conditions: Compound concentration 100.0 nM
[13] = test system: Phosphatidylinositol 4,5-bisphosphate 3-kinase catalytic subunit alpha isoform (Homo sapiens), P42336 [M1043I]; conditions: Compound concentration 100.0 nM
[14] = molecular target: Fibroblast growth factor receptor 4 (Homo sapiens) (UniProt P22455); conditions: Compound concentration 100.0 nM
[15] = molecular target: T1, Alpha-1A adrenergic receptor (Homo sapiens) (UniProt P35348); conditions: Compound concentration 10.0 uM
T1 sequence (whole entry): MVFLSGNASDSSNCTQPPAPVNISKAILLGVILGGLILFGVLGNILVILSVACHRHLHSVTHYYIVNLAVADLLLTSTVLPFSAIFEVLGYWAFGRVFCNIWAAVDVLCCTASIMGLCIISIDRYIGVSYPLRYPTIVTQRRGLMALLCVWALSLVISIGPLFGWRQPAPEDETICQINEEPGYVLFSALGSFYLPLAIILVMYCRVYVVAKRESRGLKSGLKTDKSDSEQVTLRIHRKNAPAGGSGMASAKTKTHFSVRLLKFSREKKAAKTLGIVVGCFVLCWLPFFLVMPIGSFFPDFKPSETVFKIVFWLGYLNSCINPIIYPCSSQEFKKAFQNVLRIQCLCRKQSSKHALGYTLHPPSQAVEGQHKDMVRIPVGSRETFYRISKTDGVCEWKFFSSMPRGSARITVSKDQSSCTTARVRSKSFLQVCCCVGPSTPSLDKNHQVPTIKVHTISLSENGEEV

[16] = molecular target: Serine/threonine-protein kinase 17A (Homo sapiens) (UniProt Q9UEE5); conditions: Compound concentration 100.0 nM
[17] = molecular target: Non-receptor tyrosine-protein kinase TYK2 (Homo sapiens) (UniProt P29597); conditions: Compound concentration 100.0 nM
[18] = molecular target: Wee1-like protein kinase (Homo sapiens) (UniProt P30291); conditions: Compound concentration 100.0 nM
[19] = molecular target: Serine/threonine-protein kinase Nek9 (Homo sapiens) (UniProt Q8TD19); conditions: Compound concentration 100.0 nM
[20] = molecular target: Tyrosine-protein kinase receptor Tie-1 (Homo sapiens) (UniProt P35590); conditions: Compound concentration 100.0 nM
[21] = molecular target: Mitogen-activated protein kinase kinase kinase 4 (Homo sapiens) (UniProt Q9Y6R4); conditions: Compound concentration 100.0 nM
[22] = molecular target: Serine/threonine-protein kinase PLK1 (Homo sapiens) (UniProt P53350); conditions: Compound concentration 100.0 nM
[23] = molecular target: TGF-beta receptor type-2 (Homo sapiens) (UniProt P37173); conditions: Compound concentration 100.0 nM
[24] = molecular target: Calcium/calmodulin-dependent protein kinase type IV (Homo sapiens) (UniProt Q16566); conditions: Compound concentration 100.0 nM
[25] = molecular target: Serine/threonine-protein kinase LATS1 (Homo sapiens) (UniProt O95835); conditions: Compound concentration 100.0 nM
[26] = molecular target: Tyrosine-protein kinase JAK1 (Homo sapiens) (UniProt P23458); conditions: Compound concentration 100.0 nM
[27] = molecular target: Dual specificity mitogen-activated protein kinase kinase 4 (Homo sapiens) (UniProt P45985); conditions: Compound concentration 100.0 nM
[28] = test system: Mast/stem cell growth factor receptor Kit (Homo sapiens), P10721 [V559D,T670I]; conditions: Compound concentration 100.0 nM
[29] = molecular target: Serine/threonine-protein kinase SIK1 (Homo sapiens) (UniProt P57059); conditions: Compound concentration 100.0 nM
[30] = test system: Epidermal growth factor receptor (Homo sapiens), P00533 [L861Q]; conditions: Compound concentration 100.0 nM
[31] = molecular target: Cyclin-dependent kinase 5 (Homo sapiens) (UniProt Q00535); conditions: Compound concentration 100.0 nM
[32] = molecular target: G protein-coupled receptor kinase 3 (Homo sapiens) (UniProt P35626); conditions: Compound concentration 100.0 nM
[33] = molecular target: T2, 5-hydroxytryptamine receptor 1A (Homo sapiens) (UniProt P08908); conditions: Compound concentration 10.0 uM
T2 sequence (whole entry): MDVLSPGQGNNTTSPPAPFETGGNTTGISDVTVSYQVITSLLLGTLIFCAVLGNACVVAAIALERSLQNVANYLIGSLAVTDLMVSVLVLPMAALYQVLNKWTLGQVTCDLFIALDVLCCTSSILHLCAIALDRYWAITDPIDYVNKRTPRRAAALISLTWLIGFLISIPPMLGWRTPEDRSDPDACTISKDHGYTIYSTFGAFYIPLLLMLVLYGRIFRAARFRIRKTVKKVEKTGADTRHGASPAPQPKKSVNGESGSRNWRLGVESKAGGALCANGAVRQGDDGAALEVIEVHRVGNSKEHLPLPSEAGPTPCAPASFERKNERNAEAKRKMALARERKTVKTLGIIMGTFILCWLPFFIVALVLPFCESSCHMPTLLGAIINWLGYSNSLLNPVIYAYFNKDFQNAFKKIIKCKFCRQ

Sequence of Tyrosine-protein kinase receptor Tie-1 (Homo sapiens) (P35590 whole entry): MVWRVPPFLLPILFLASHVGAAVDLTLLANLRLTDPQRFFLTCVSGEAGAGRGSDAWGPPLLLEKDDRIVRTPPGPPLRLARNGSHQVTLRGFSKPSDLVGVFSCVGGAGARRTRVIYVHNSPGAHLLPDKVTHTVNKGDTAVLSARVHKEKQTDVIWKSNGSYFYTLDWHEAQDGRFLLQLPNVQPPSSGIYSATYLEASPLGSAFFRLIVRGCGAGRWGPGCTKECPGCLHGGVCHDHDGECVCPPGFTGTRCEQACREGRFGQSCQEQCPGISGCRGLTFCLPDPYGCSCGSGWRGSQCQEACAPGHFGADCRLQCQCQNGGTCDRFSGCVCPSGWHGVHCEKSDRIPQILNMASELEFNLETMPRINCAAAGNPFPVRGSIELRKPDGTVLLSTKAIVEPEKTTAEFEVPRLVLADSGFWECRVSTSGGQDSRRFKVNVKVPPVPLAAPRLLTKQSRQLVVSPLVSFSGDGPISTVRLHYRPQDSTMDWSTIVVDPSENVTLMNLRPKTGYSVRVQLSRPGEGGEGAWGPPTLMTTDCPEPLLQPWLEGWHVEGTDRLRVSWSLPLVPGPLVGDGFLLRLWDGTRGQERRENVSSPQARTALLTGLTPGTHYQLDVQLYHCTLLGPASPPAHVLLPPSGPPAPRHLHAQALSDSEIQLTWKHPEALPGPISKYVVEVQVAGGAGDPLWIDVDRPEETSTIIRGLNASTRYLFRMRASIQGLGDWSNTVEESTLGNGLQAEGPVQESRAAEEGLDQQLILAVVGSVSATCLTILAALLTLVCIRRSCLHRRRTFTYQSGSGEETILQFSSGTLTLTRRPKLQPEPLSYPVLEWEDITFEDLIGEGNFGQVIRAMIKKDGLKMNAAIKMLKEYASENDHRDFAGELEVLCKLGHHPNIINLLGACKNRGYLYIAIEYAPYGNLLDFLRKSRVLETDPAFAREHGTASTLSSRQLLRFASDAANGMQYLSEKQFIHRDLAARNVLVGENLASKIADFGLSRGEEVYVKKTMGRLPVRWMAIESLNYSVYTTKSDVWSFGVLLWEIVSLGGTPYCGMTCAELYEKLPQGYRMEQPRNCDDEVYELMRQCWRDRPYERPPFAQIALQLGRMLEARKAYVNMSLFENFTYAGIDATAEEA
Sequence of Mitogen-activated protein kinase kinase kinase 6 (Homo sapiens) (O95382 whole entry): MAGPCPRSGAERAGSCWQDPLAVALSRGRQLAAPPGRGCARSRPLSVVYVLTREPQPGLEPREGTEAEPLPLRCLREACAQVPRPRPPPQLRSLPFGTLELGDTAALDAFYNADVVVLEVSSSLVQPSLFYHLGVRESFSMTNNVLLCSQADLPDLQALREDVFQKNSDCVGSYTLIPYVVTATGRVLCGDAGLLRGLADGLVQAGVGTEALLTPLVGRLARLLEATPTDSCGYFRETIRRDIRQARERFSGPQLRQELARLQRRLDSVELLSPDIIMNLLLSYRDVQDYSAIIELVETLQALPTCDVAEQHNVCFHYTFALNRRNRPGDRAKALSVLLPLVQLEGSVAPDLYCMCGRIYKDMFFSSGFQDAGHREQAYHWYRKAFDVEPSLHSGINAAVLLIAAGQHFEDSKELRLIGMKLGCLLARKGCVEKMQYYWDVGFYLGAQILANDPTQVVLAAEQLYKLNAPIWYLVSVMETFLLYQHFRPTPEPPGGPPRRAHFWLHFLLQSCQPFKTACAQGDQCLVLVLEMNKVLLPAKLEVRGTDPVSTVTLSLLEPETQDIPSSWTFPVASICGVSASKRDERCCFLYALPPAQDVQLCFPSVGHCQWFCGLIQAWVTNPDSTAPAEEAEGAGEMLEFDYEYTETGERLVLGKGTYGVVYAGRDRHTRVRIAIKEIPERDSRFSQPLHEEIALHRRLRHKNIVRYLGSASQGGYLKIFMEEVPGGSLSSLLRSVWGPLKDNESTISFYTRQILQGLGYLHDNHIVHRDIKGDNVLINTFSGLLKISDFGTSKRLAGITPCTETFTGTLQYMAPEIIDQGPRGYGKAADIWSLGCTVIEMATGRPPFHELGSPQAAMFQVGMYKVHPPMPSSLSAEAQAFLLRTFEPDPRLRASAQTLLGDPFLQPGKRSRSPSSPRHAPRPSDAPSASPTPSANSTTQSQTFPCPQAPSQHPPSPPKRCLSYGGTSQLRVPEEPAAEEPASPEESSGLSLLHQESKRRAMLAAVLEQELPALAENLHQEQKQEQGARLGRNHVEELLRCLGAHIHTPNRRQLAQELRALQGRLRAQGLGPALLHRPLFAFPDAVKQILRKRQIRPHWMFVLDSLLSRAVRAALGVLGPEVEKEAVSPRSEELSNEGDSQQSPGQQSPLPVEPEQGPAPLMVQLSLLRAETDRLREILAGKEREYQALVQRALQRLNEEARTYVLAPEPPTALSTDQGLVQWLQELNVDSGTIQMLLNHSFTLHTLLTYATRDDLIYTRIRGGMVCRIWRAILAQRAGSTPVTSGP
Sequence of Tyrosine-protein kinase JAK1 (Homo sapiens) (P23458 whole entry): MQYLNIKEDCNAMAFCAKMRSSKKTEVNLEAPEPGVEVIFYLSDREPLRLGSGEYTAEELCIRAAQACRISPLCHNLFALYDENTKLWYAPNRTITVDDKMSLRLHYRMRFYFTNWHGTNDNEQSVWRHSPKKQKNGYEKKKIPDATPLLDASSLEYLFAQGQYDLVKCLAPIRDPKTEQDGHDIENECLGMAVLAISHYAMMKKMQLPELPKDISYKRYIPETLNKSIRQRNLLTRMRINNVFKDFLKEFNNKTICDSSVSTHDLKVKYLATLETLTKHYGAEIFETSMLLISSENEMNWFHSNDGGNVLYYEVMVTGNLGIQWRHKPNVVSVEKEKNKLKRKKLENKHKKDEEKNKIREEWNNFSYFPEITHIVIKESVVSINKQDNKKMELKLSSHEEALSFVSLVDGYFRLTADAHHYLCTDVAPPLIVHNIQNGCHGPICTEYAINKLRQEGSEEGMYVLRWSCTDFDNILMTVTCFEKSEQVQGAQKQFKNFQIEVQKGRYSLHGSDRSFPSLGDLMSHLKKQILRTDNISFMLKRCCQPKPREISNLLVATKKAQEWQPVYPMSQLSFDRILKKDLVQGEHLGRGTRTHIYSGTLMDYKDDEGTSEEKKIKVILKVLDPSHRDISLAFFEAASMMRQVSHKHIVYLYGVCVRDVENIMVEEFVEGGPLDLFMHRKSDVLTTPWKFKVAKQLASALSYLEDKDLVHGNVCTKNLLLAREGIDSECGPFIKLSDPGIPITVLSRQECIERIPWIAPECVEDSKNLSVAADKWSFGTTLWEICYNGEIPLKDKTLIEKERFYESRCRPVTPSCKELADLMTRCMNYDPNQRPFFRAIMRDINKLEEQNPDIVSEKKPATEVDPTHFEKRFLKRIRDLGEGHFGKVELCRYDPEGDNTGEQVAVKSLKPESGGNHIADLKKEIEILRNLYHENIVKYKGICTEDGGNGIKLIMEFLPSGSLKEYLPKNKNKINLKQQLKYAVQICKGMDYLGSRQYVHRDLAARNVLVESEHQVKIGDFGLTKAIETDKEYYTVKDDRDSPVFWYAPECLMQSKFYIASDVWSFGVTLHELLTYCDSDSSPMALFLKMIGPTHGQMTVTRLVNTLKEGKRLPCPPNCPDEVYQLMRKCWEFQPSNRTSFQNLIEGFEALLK
Sequence of Phosphatidylinositol 4,5-bisphosphate 3-kinase catalytic subunit alpha isoform (Homo sapiens), P42336 [M1043I] (P42336 whole entry M1043I, canonical isoform): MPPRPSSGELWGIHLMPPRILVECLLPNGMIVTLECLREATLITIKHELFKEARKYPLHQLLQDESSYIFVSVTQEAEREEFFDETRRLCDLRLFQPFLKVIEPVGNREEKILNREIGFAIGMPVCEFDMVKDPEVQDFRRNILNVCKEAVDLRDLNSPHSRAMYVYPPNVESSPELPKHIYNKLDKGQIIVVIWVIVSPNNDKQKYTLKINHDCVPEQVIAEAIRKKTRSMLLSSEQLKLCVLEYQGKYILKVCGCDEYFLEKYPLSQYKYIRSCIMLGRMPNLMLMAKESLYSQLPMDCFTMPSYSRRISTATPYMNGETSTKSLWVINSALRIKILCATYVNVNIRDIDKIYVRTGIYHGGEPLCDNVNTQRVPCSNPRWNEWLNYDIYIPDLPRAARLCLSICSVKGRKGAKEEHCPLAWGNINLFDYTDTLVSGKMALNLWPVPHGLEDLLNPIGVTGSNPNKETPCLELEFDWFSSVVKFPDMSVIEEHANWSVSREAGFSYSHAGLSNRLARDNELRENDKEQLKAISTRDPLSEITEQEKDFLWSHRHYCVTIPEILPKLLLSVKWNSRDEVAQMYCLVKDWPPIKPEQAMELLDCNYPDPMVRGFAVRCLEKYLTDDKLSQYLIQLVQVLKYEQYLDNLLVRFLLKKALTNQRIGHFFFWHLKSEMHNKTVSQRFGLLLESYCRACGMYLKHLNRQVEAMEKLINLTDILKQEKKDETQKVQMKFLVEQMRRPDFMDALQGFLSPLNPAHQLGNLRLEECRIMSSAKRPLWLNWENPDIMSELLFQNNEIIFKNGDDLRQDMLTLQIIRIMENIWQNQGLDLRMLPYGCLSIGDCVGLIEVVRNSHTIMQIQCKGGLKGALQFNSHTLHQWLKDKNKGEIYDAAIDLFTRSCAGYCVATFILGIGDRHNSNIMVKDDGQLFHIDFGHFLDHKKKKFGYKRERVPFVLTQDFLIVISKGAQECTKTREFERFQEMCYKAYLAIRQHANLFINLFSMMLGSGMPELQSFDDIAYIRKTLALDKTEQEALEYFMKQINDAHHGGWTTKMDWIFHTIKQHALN
Sequence of Dual specificity mitogen-activated protein kinase kinase 4 (Homo sapiens) (P45985 whole entry): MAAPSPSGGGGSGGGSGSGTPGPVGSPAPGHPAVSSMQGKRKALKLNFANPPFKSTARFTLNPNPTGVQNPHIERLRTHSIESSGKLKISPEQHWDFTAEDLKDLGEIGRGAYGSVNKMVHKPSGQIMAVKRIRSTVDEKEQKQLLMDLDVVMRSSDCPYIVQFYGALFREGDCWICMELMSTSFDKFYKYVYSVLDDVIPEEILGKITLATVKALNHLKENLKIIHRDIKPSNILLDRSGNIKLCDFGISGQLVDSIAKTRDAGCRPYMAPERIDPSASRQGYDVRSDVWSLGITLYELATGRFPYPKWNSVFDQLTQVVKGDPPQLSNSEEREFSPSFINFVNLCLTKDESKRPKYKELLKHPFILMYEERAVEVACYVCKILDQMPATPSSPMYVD

COCCOc1nc(-c2ccc(Cl)nc2)nc2c1CN(C(=O)c1ncn3ccccc13)CC2 [THPP-1]
inactive: residual activity [1] 100% | residual activity [2] 100% | residual activity [3] 100% | residual activity [4] 97% | residual activity [5] 100% | residual activity [6] 100% | residual activity [7] 78% | residual activity [8] 100% | residual activity [9] 100% | residual activity [10] 100% | residual activity [11] 100% | residual activity [12] 65% | residual activity [13] 88% | residual activity [14] 90% | inhibition [15] 12.7% | residual activity [16] 79% | residual activity [17] 100% | residual activity [18] 100% | residual activity [19] 100% | residual activity [20] 100% | residual activity [21] 100% | residual activity [22] 100% | residual activity [23] 94% | residual activity [24] 100% | residual activity [25] 70% | residual activity [26] 76% | residual activity [27] 100% | residual activity [28] 100% | residual activity [29] 100% | residual activity [30] 99% | residual activity [31] 100% | residual activity [32] 100% | inhibition [33] -0.41%

CC(C)CC(=O)N1CCc2nc(-c3ccc(Br)cc3)nc(N(C)Cc3ccccc3)c2C1 [THPP-1-NC]
inactive: residual activity [1] 100% | residual activity [2] 95% | residual activity [3] 100% | residual activity [4] 100% | residual activity [5] 100% | residual activity [6] 100% | residual activity [7] 91% | residual activity [8] 100% | residual activity [9] 100% | residual activity [10] 100% | residual activity [11] 99% | residual activity [12] 73% | residual activity [13] 53% | residual activity [14] 98% | inhibition [15] -1.11% | residual activity [16] 96% | residual activity [17] 100% | residual activity [18] 100% | residual activity [19] 100% | residual activity [20] 100% | residual activity [21] 100% | residual activity [22] 100% | residual activity [23] 97% | residual activity [24] 100% | residual activity [25] 67% | residual activity [26] 71% | residual activity [27] 97% | residual activity [28] 95% | residual activity [29] 91% | residual activity [30] 100% | residual activity [31] 100% | residual activity [32] 100% | inhibition [33] -0.56%

From ChEMBL document CHEMBL4507293 (2021)
